Reference: patent publication US11091482B2, “Isoxazolyl-carbonyloxy azabicyclo[3.2.1]octanyl compounds as FXR activators” (ARDELYX, INC., priority 2016, dated 2021)
Where two headings read alike, the source gives them in different places.

Tests used:
[1] = molecular target: ligand binding domain of human FXR (Homo sapiens (Human), UniProt Q96RI1); test: FXR ligand binding assay (LanthaScreen FRET); parameters: Activity, %: concentration or dose not given beside the values; details: for Emax: read-out: % Efficacy; for FXR pEC50: -log EC50;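 on all read-outs here: TR-FRET coactivator recruitment: ligand-induced binding of fluorescein-labelled SRC2-2 peptide to GST-tagged FXR LBD detected via Tb anti-GST antibody, serial compound dilutions, 3-parameter logistic fit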
[2] = molecular target: human Farnesoid X receptor ligand-binding domain/Gal4 DNA binding domain chimera (Homo sapiens (Human), UniProt Q96RI1); test: Cell-based FXR beta-lactamase reporter assay (FXR-UAS-bla HEK 293T cells); details: for Emax: HEK-293T, read-out: % Efficacy
How it was run: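 Stable FXR-UAS-bla HEK 293T cells in phenol red-free DMEM with 2% charcoal-stripped FBS were exposed to 3-fold serial dilutions of compound. Beta-lactamase reporter activity was read by CCF4 FRET loss, exciting at 409 nm with blue emission at 447 nm. The FRET change versus concentration was fit to a 3-parameter logistic equation.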

[3] = system: fibroblast growth factor 19 (FGF19) secretion in human ileum; test: Human ileum APECCS (FGF19 secretion); assay type: cell-based; details: for EC50: Fibroblast; for Activity, %: relative to GW4064
[4] = system: C57BL/6 male mice fed a Western diet; test: Western diet study; assay type: in vivo, C57BL/6 mice
Experimental: (§1) Six-week-old C57BL/6 male mice were fed a Western diet (WD) (62% fat/0.2% cholesterol). […] An additional control group (lean) was fed a standard rodent chow throughout the study. Body weight measurements and serum samples (tail bleed) were taken weekly. After 6 weeks of treatment, all animals were sacrificed and hepatosteatosis-related endpoints and other liver markers were measured.
(§2) Total RNA from mouse tissues was isolated and used for library preparation.

Western diet study = assay type: in vivo, C57BL/6 mice; details: male, C57BL/6, mouse, serum; 30 mg/kg q.d., after 2 weeks of treatment, 2 hours after the last dose; read-out: serum FXR agonist concentration
Experimental: as §1, §2

FXR target genes = test: Single-dose FXR target gene expression in mice fed a standard diet; assay type: in vivo, C57BL/6 mice; details: single dose 30 mg/kg
Excerpt: as §2

[5] = cellular FXR beta-lactamase reporter assay, -log EC50, read-out: FXR pEC50 (converted)
[6] = Western diet, 6 weeks of treatment
[7] = Western diet, 6 weeks, I-2 30 mg/kg q.d. or b.i.d., Px-102 30 mg/kg q.d., FGF15-AAV single IV dose

ligand binding domain of human FXR, sequence (Q96RI1 262-486): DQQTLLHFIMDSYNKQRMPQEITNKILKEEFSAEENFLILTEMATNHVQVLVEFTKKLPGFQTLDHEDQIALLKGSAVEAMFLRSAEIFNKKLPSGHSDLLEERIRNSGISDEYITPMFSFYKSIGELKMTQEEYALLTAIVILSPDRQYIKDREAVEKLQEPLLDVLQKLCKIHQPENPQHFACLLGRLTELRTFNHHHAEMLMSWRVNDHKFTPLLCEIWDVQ
human Farnesoid X receptor ligand-binding domain/Gal4 DNA binding domain chimera, sequence (Q96RI1 262-486, change not shown): as the sequence (Q96RI1 262-486) above

Row | SMILES | Emax [1] | Emax [2] | EC50 [2, 5] | FXR pEC50 ([1]; FXR ligand binding assay) | further results
1 | O=C(O)c1cc(F)cc(S(=O)(=O)N2[C@@H]3CC[C@H]2C[C@@H](OC(=O)c2c(-c4c(Cl)cccc4Cl)noc2C2CC2)C3)c1 [Compound I-56, 3-{[(1R,3R,5S)-3-[5-cyclopropyl-3-(2,6-dichlorophenyl)-1,2-oxazole-4-carbonyloxy]-8-azabicyclo[3.2.1]octan-8-yl]sulfonyl}-5-fluorobenzoic Acid] | 56% | 78% | 631 nM |  | 
2 | O=C(O)c1cc(OC(F)(F)F)c2nc(N3[C@@H]4CC[C@H]3C[C@@H](OC(=O)c3c(C56CCC(CC5)CC6)noc3C3CC3)C4)sc2c1 [Compound I-57, 2-[(1R,3R,5S)-3-(3-{bicyclo[2.2.2]octan-1-yl}-5-cyclopropyl-1,2-oxazole-4-carbonyloxy)-8-azabicyclo[3.2.1]octan-8-yl]-4-(trifluoromethoxy)-1,3-benzothiazole-6-carboxylic Acid] | 26% | 33% | 398 nM |  | 
3 | COC12CCC(c3noc(C4CC4)c3C(=O)O[C@@H]3C[C@H]4CC[C@@H](C3)N4c3nc4c(OC(F)(F)F)cc(C(=O)O)cc4s3)(CC1)CC2 [Compound I-58, 2-[(1R,3S,5S)-3-(5-cyclopropyl-3-{4-methoxybicyclo[2.2.2]octan-1-yl}-1,2-oxazole-4-carbonyloxy)-8-azabicyclo[3.2.1]octan-8-yl]-4-(trifluoromethoxy)-1,3-benzothiazole-6-carboxylic Acid] |  |  |  | >4.4 | % Efficacy ([1]; FXR ligand binding assay, extent of activation relative to GW4064): 22%; FXR pEC50 ([2]; cellular FXR beta-lactamase reporter assay, -log EC50): >4.5
4 | Cc1cc(C(=O)O)cc2sc(N3[C@@H]4CC[C@H]3C[C@@H](OC(=O)c3c(-c5c(Cl)cccc5Cl)noc3C3(F)CC3)C4)nc12 [Compound I-59, 2-[(1R,3R,5S)-3-[3-(2,6-dichlorophenyl)-5-(1-fluorocyclopropyl)-1,2-oxazole-4-carbonyloxy]-8-azabicyclo[3.2.1]octan-8-yl]-4-methyl-1,3-benzothiazole-6-carboxylic Acid] | 95% | 105% | 39.8 nM |  | 
5 | CCc1cc(C(=O)O)cc2sc(N3[C@@H]4CC[C@H]3C[C@@H](OC(=O)c3c(-c5c(Cl)cccc5Cl)noc3C3CC3)C4)nc12 [Compound I-60, 2-[(1R,3R,5S)-3-[5-cyclopropyl-3-(2,6-dichlorophenyl)-1,2-oxazole-4-carbonyloxy]-8-azabicyclo[3.2.1]octan-8-yl]-4-ethyl-1,3-benzothiazole-6-carboxylic Acid] | 119% | 104% | 6.31 nM | 7 | 
6 | Cc1cc(C(=O)O)cc2sc(N3[C@@H]4CC[C@H]3C[C@@H](OC(=O)c3c(-c5ccccc5C(F)(F)F)noc3C3CC3)C4)nc12 [Compound I-61, 2-[(1R,3R,5S)-3-{5-cyclopropyl-3-[2-(trifluoromethyl)phenyl]-1,2-oxazole-4-carbonyloxy}-8-azabicyclo[3.2.1]octan-8-yl]-4-methyl-1,3-benzothiazole-6-carboxylic Acid] | 139% | 102% | 10 nM | 7.1 | 
7 | CCCS(=O)(=O)NC(=O)c1cc(F)c2nc(N3[C@@H]4CC[C@H]3C[C@@H](OC(=O)c3c(-c5c(Cl)cccc5Cl)noc3C3(F)CC3)C4)sc2c1 [Compound I-62, (1R,3R,5S)-8-{4-fluoro-6-[(propane-1-sulfonyl)carbamoyl]-1,3-benzothiazol-2-yl}-8-azabicyclo[3.2.1]octan-3-yl 3-(2,6-dichlorophenyl)-5-(1-fluorocyclopropyl)-1,2-oxazole-4-carboxylate] | 145% | 107% | 20 nM | 7.4 | 
8 | O=C(OCCN(CCO)CCO)c1cc(F)c2nc(N3[C@@H]4CC[C@H]3C[C@@H](OC(=O)c3c(-c5c(Cl)cccc5Cl)noc3C3CC3)C4)sc2c1 [Compound I-63, 2-[bis(2-hydroxyethyl)amino]ethyl 2-[(1R,3R,5S)-3-[5-cyclopropyl-3-(2,6-dichlorophenyl)-1,2-oxazole-4-carbonyloxy]-8-azabicyclo[3.2.1]octan-8-yl]-4-fluoro-1,3-benzothiazole-6-carboxylate] |  | 112% | 10000 nM | >6.5 | 
9 | O=C(OCC(=O)N(CCO)CCO)c1cc(F)c2nc(N3[C@@H]4CC[C@H]3C[C@@H](OC(=O)c3c(-c5c(Cl)cccc5Cl)noc3C3CC3)C4)sc2c1 [Compound I-64, [bis(2-hydroxyethyl)carbamoyl]methyl 2-[(1R,3R,5S)-3-[5-cyclopropyl-3-(2,6-dichlorophenyl)-1,2-oxazole-4-carbonyloxy]-8-azabicyclo[3.2.1]octan-8-yl]-4-fluoro-1,3-benzothiazole-6-carboxylate] | 32% |  | < 31.6 nM | 6.6 | 
10 | CC(C)c1onc(-c2c(Cl)cccc2Cl)c1COc1ccc(/C=C/c2cccc(C(=O)O)c2)c(Cl)c1 [GW4064] |  |  |  |  | EC50 [3]: 316 nM; Activity, % [3]: 100 ± 0%
11 | CC[C@H]1[C@@H](O)[C@@H]2[C@H](CC[C@]3(C)[C@@H]([C@H](C)CCC(=O)O)CC[C@@H]23)[C@@]2(C)CC[C@@H](O)C[C@@H]12 [OCA, Obeticholic acid] |  |  |  |  | EC50 [3]: 501 nM; Activity, % [3]: 82.6 ± 19%
12 | O=C(O)c1ccc([C@H]2C[C@@H]2c2ccc(OCc3c(-c4c(Cl)cccc4Cl)noc3C3CC3)cc2Cl)cc1 [Px-102] |  |  |  |  | body weight [4, 6]: did not affect; liver weight [4, 6]: did not affect; liver cholesterol [4, 7]: normalized; liver triglycerides [4, 7]: normalized; macrovesicular steatosis [4, 7]: reduced; serum cholesterol [4, 7]: reduced; Cyp7a1 gene expression ([4]; liver, Western diet): downregulated; serum FGF15 concentration ([4]; mice fed a WD): further increased; concentration at 2 h (Western diet study): 475 ng/mL; expression of selected FXR target genes in the liver (FXR target genes): activated; expression of FXR target genes, including FGF15, in the ileum (FXR target genes; 6 h after dosing): activated; EC50 [3]: 331 nM; Activity, % [3]: 96.5 ± 25%; Activity, % ([1]; Human FXR Binding (FRET), relative to GW4064): 90 ± 15%; EC50 ([1]; Human FXR Binding (FRET), value ± spread, read-out: pEC50 (converted)): 10 nM; Activity, % ([2]; Human FXR Cell (Gal4), relative to GW4064): 108%; EC50 ([2]; Human FXR Cell (Gal4), read-out: pEC50 (converted)): 158 nM
